Here are results for 41 molecules from patent US4115385A, “Antibacterial 3-(5-tetrazolyl) penam compounds” (Pfizer Inc., priority 1977, dated 1978).

Values after ≈ are worked out from the molar mass of the structure shown.

The subject of the first experiment is Streptococcus pyogenes. Description: In vitro minimum inhibitory concentration (MIC) vs. Strep. pyogenes. As to conditions: Examples. The experiment is classed as cell-based. On the procedure: The antibacterial penam compounds of the instant invention show activity against a wide variety of gram-positive and gram-negative bacteria. […] The broth is inoculated with the bacterial culture, and with the test antibiotic, and then it is incubated overnight. On the next day, the test is read visually. The minimum inhibitory concentration (MIC) is the lowest concentration of antibiotic which prevents turbidity, i.e., which prevents growth of the microorganism. In vitro activities of several of the penam compounds of the invention are presented later in this specification.
In Table II, the minimum inhibitory concentrations (MIC's) of compounds of formula I, wherein R^2 is hydrogen, against a strain of Streptococcus pyogenes, are reported; and in Table III, minimum inhibitory concentrations of compounds of formula I, wherein R^2 is hydrogen, against a strain of Staphylococcus aureus, are presented. Because of the tautomeric nature of such tetrazole derivatives, referred to hereinbefore,each of the preparations tested also contains some of the corresponding compound of formula II, wherein R^3 is hydrogen.
In the case of “6-(2-Phenylacetamido)-2,2-dimethyl-3-(1-pivaloyloxymethyl]-tetrazol-5-yl)penam and 6-(2-Phenylacetamido)-2,2-dimethyl-3-(2-[pivaloyloxylmethyl]tetrazol-5-yl)penam”, the “MIC against Strep. pyogenes” value worked out at 0.2 µg/mL.

Still in this experiment, the particulars now being: Streptococcus pyogenes, read-out: MIC vs. Strep. pyogenes.
As to `CC1(C)S[C@@H]2[C@H](NC(=O)[C@H](NC(=O)NC(=O)c3cccnc3)c3ccccc3)C(=O)N2[C@H]1c1nn[nH]n1`, the MIC turned out to be 0.1 µg/mL (≈ 0.192 µM).
Same read-out and setting: the figure for `CC1(C)S[C@@H]2[C@H](NC(=O)[C@H](NC(=O)CNS(C)(=O)=O)c3ccccc3)C(=O)N2[C@H]1c1nn[nH]n1` is under 0.1 µg/mL; for `CNC(=N)NC(=O)NCC(=O)N[C@@H](C(=O)N[C@@H]1C(=O)N2[C@@H]1SC(C)(C)[C@@H]2c1nn[nH]n1)c1ccccc1` it is under 0.1 µg/mL; for `CC1(C)S[C@@H]2[C@H](NC(=O)[C@H](NC(=S)Nc3ccccc3)c3ccccc3)C(=O)N2[C@H]1c1nnn[nH]1` [D-2-(3-phenylthioureido)-2-phenylacetyl, 6-(D-2-[3-Phenylthioureido]-2-phenylacetamide)-2,2-dimethyl-3-(5-tetrazol)penam] it is under 0.1 µg/mL.
The same measure, in the same setting: the value for `CC1(C)S[C@@H]2[C@H](NC(=O)[C@H](NC(=O)CNC(=N)N)c3ccccc3)C(=O)N2[C@H]1c1nn[nH]n1` was under 0.1 µg/mL; that for `Cc1cc(C(=O)NC(=O)N[C@@H](C(=O)N[C@@H]2C(=O)N3[C@@H]2SC(C)(C)[C@@H]3c2nn[nH]n2)c2ccccc2)on1` was under 0.1 µg/mL; that for `CC1(C)S[C@@H]2[C@H](NC(=O)[C@H](NC(=O)CNC(=O)Nc3ccccc3)c3ccccc3)C(=O)N2[C@H]1c1nnn[nH]1` was under 0.1 µg/mL.
In the case of `CCSCC(=O)N[C@@H]1C(=O)N2[C@@H]1SC(C)(C)[C@@H]2c1nnn[nH]1` [2-(ethylthio)acetyl], the MIC was under 0.1 µg/mL.
On the same count and under the same terms, the figure for `CC1(C)S[C@@H]2[C@H](NC(=O)Cc3cccc(OCCN)c3)C(=O)N2[C@H]1c1nn[nH]n1` [2-(3-[2-aminoethoxy]phenyl)acetyl, 6-(2-[3-(2-Aminoethoxy)phenyl]acetamido)-2,2-dimethyl-3-(5-tetrazolyl)penam] is under 0.1 µg/mL; for `CC1(C)S[C@@H]2[C@H](NC(=O)[C@H](NC(=O)NC(=O)c3ccccc3)c3ccccc3)C(=O)N2[C@H]1c1nn[nH]n1` [2-(3-benzoylureido)-2-phenylacetyl] it is under 0.1 µg/mL; for `CC1(C)S[C@@H]2[C@H](NC(=O)[C@H](NC(=O)NC(=O)Cc3ccccc3)c3ccccc3)C(=O)N2[C@H]1c1nn[nH]n1` it is under 0.1 µg/mL.
Same read-out and setting: the figure for `CC1(C)S[C@@H]2[C@H](NC(=O)[C@H](NC(=O)Cc3ccccc3)c3ccccc3)C(=O)N2[C@H]1c1nnn[nH]1` [D-2-(2-phenylacetamido)-2-phenylacetyl] is under 0.1 µg/mL; for `CC1(C)S[C@@H]2[C@H](NC(=O)[C@H](NC(=O)C(=Cc3ccc(Cl)cc3)C(=O)O)c3ccccc3)C(=O)N2[C@H]1c1nnn[nH]1` [6-(D-2-[2-carboxy-2(p-chlorophenyl)acrylamido]-2-phenylacetamido)-2,2-dimethyl-3-(5-tetrazolyl)penam] it is under 0.1 µg/mL; for `CC1(C)S[C@@H]2[C@H](NC(=O)CNC(=O)c3ccccc3)C(=O)N2[C@H]1c1nn[nH]n1` [2-(benzamido)acetyl, 6-(2-[Benzamido]acetamido)-2,2-dimethyl-3-(5-tetrazolyl)penam] it is 0.1 µg/mL (≈ 0.249 µM).
On the same count and under the same terms, the value for `CC1(C)S[C@@H]2[C@H](NC(=O)[C@H](NC(=O)CNC(=O)NC(=N)NCc3ccccc3)c3ccccc3)C(=O)N2[C@H]1c1nn[nH]n1` was 0.1 µg/mL (≈ 0.165 µM).
Regarding `CC(=O)NCC(=O)N[C@@H](C(=O)N[C@@H]1C(=O)N2[C@@H]1SC(C)(C)[C@@H]2c1nn[nH]n1)c1ccccc1`, the minimum inhibitory concentration (MIC) is under 0.1 µg/mL.
On the same count and under the same terms, the figure for `CC1(C)S[C@@H]2[C@H](NC(=O)C(NC(=O)CBr)c3ccccc3)C(=O)N2[C@H]1c1nn[nH]n1` (stereo partly shown) [2-(2-bromoacetamido)-2-phenylacetyl, 6-(2-[2-bromoacetamido]-2-phenylacetamido)-2,2-dimethyl-3-(5-tetrazolyl)penam] is under 0.1 µg/mL.
Still for that read-out and setting: the value for `CC1(C)S[C@@H]2[C@H](NC(=O)C(NC(=O)CSC3=NCCN3)c3ccccc3)C(=O)N2[C@H]1c1nn[nH]n1` (stereo partly shown) [6-(2-[2-(Δ^1 -Imidazolin-2-ylthio)acetamido]-2-phenylacetamido)-2,2-dimethyl-3-(5-tetrazolyl)penam] was under 0.1 µg/mL; that for `CC1(C)S[C@@H]2[C@H](NC(=O)C(N)c3ccc(S(N)(=O)=O)cc3)C(=O)N2[C@H]1c1nnn[nH]1` (mixture of isomers) [DL-2-amino-2-(p-sulfamoylphenyl)acetyl] was under 0.1 µg/mL.
As for `CC1(C)S[C@@H]2[C@H](NC(=O)[C@H](NC(=O)CNC(=N)c3ccncc3)c3ccccc3)C(=O)N2[C@H]1c1nnn[nH]1` [6-(D-2-[2-(4-pyridinecarboxamidino)acetamido]-2-phenylacetamido)-2,2-dimethyl-3-(5-tetrazolyl)penam], the MIC is under 0.1 µg/mL.

The experiment is the same for the next values; noted with them: Streptococcus pyogenes; Examples; read-out: MIC against Strep. pyogenes.
With `CC(C)(C)C(=O)OCn1nnc([C@@H]2N3C(=O)[C@@H](NC(=O)[C@H](N)c4ccc(O)cc4)[C@H]3SC2(C)C)n1` [6-(D-2-Amino-2-[p-hydroxyphenyl]acetamido)-2,2-dimethyl-3-(2-[pivaloyloxymethyl]tetrazol-5-yl)penam], the MIC came to 0.39 µg/mL (≈ 0.774 µM).

The experiment is the same for the next values; noted with them: Streptococcus pyogenes; Table II; two-fold serial dilution, Brain-Heart Infusion broth, overnight; read-out: MIC vs. Strep. pyogenes.
Take `CC1(C)S[C@@H]2[C@H](NC(=O)[C@H](NC(=O)CNC(=N)c3ncccn3)c3ccccc3)C(=O)N2[C@H]1c1nnn[nH]1`: the MIC is 0.78 µg/mL (≈ 1.46 µM).
On the same count and under the same terms, the figure for `CC1(C)S[C@@H]2[C@H](NC(=O)C(N)c3ccc(N)cc3)C(=O)N2[C@H]1c1nnn[nH]1` (stereo partly shown) [2-amino-2-(4-aminophenyl)acetyl] is 0.039 µg/mL (≈ 0.1 µM); for `Cc1onc(-c2ccccc2Cl)c1C(=O)N[C@@H]1C(=O)N2[C@@H]1SC(C)(C)[C@@H]2c1nnn[nH]1` [6-(3-[2-Chlorophenyl]-5-methyl-4-isoxazolecarboxamido)-2,2-dimethyl-3-(5-tetrazolyl)penam] it is under 0.1 µg/mL.
The same measure, in the same setting: the value for `CC1(C)S[C@@H]2[C@H](NC(=O)[C@H](NC(=O)CNC(=O)NC(=N)NCC3CCCCC3)c3ccccc3)C(=O)N2[C@H]1c1nn[nH]n1` was 0.2 µg/mL (≈ 0.327 µM); that for `CC1(C)S[C@@H]2[C@H](NC(=O)CSc3ccccc3CN)C(=O)N2[C@H]1c1nnn[nH]1` [2-(2-[aminomethyl]phenylthio)acetyl] was 1.56 µg/mL (≈ 3.72 µM).
Still for that read-out and setting: the value for `CC1(C)S[C@@H]2[C@H](NC(=O)[C@H](NC(=O)CCNC(=N)c3ccc(Cl)c(Cl)c3)c3ccccc3)C(=O)N2[C@H]1c1nnn[nH]1` was 0.78 µg/mL (≈ 1.27 µM); that for `CCNC(=S)NCCC(=O)N[C@@H](C(=O)N[C@@H]1C(=O)N2[C@@H]1SC(C)(C)[C@@H]2c1nnn[nH]1)c1ccccc1` was 0.39 µg/mL (≈ 0.734 µM); that for `COc1ccc(C(=N)NC(=O)NCC(=O)N[C@@H](C(=O)N[C@@H]2C(=O)N3[C@@H]2SC(C)(C)[C@@H]3c2nnn[nH]2)c2ccccc2)cc1` was 1.56 µg/mL (≈ 2.57 µM).
With `CC1(C)S[C@@H]2[C@H](NC(=O)[C@H](NC(=O)CNC(=O)OCc3ccccc3)c3ccccc3)C(=O)N2[C@H]1c1nnn[nH]1`, the MIC amounted to 0.39 µg/mL (≈ 0.691 µM).
Regarding `CC1(C)S[C@@H]2[C@H](NC(=O)[C@H](N)c3ccc(N)cc3)C(=O)N2[C@H]1c1nnn[nH]1` [D-2-amino-(4-aminophenyl)acetyl, 6-(D-2-Amino-2-[4-aminophenyl]acetamido)-2,2-dimethyl-3-(5-tetrazolyl)penam], the MIC came out at 0.39 µg/mL (≈ 1 µM).
On to `CC1(C)S[C@@H]2[C@H](NC(=O)[C@H](NC(=O)CNC(=N)c3cc(Cl)cc(C#N)c3)c3ccccc3)C(=O)N2[C@H]1c1nnn[nH]1`, for which the minimum inhibitory concentration (MIC) was 0.004 µg/mL (≈ 0.00674 µM).
The same measure, in the same setting: the value for `CC1(C)S[C@@H]2[C@H](NC(=O)[C@@H](N)Cc3ccc(O)cc3)C(=O)N2[C@H]1c1nn[nH]n1` [L-2-amino-3-(p-hydroxyphenyl)propionyl, 6-(L-2-amino-3-[4-hydroxyphenyl]propionamido)-2,2-dimethyl-3-(5-tetrazoyl)penam] was 0.2 µg/mL (≈ 0.496 µM); that for `CC1(C)S[C@@H]2[C@H](NC(=O)CNC(=O)NC(=N)Cc3ccc(Cl)cc3)C(=O)N2[C@H]1c1nnn[nH]1` [6-(2-[3-(2-[p-Chlorophenyl]acetimidoyl)ureido]acetamido)-2,2-dimethyl-3-(5-tetrazolyl)penam] was 100 µg/mL (≈ 203 µM).
Still for that read-out and setting: the value for `CC1(C)S[C@@H]2[C@H](NC(=O)[C@H](NC(=O)CC#N)c3ccccc3)C(=O)N2[C@H]1c1nnn[nH]1` [D-2-(2-cyanoacetamido)-2-phenylacetyl] was 0.004 µg/mL (≈ 0.00908 µM).
Still for that read-out and setting: the figure for `CC1(C)S[C@@H]2[C@H](NC(=O)[C@H](NS(=O)(=O)O)c3ccccc3)C(=O)N2[C@H]1c1nnn[nH]1` [D-2-sulfoamino-2-phenylacetyl, 6-(D-2-sulfoamino-2-phenylacetamido)-2,2-dimethyl-3-(5-tetrazolyl)penam] is 12.5 µg/mL (≈ 27.6 µM); for `CC1(C)S[C@@H]2[C@H](NC(=O)[C@H](NC(=O)CN=[N+]=[N-])c3ccccc3)C(=O)N2[C@H]1c1nnn[nH]1` [D-2-(2-azicoacetamido)-2-phenylacetyl] it is 0.2 µg/mL (≈ 0.438 µM).
`CC1(C)S[C@@H]2[C@H](NC(=O)[C@H](NC(=O)CCNC(=N)c3cc[n+]([O-])cc3)c3ccccc3)C(=O)N2[C@H]1c1nnn[nH]1`: the MIC is 3.12 µg/mL (≈ 5.53 µM).
The same measure, in the same setting: the figure for `CC1(C)S[C@@H]2[C@H](NC(=O)[C@H](NC(=O)CCNC(=N)c3ccccc3)c3ccccc3)C(=O)N2[C@H]1c1nnn[nH]1` is 3.12 µg/mL (≈ 5.7 µM); for `CC1(C)S[C@@H]2[C@H](NC(=O)/C=C\C(N)=O)C(=O)N2[C@H]1c1nnn[nH]1` [3-(carbamoyl)acryloyl, 6-(3-[Carbamoyl]acrylamido)-2,2-dimethyl-3-(5-tetrazolyl)penam] it is under 0.1 µg/mL.

The experiment is the same for the next values; noted with them: Streptococcus pyogenes; Table IV; read-out: MIC vs. Strep. pyogenes.
As to `CC(C)(C)C(=O)OCn1nnc([C@@H]2N3C(=O)[C@@H](NC(=O)[C@H](N)c4ccc(O)cc4)[C@H]3SC2(C)C)n1` [6-(D-2-Amino-2-[p-hydroxyphenyl]acetamido)-2,2-dimethyl-3-(2-[pivaloyloxymethyl]tetrazol-5-yl)penam], the MIC is 0.39 µg/mL (≈ 0.774 µM).

Staying with this experiment, now noted: Table IV.
With “6-(2-Phenylacetamido)-2,2-dimethyl-3-(1-pivaloyloxymethyl]-tetrazol-5-yl)penam and 6-(2-Phenylacetamido)-2,2-dimethyl-3-(2-[pivaloyloxylmethyl]tetrazol-5-yl)penam”, the “MIC vs. Strep. pyogenes” value came to 0.2 µg/mL.
